Entries after “also recorded” stand apart in the source; their conditions may differ.
Tests used:
Type in all cases: physicochemical
[1] = Slurry competition (interconversion) studies between Forms I and IV in heptane; conditions: mixture of Form I and Form IV, pre-saturated heptane, 7 d
Procedure: Interconversion slurries were conducted in heptane at RT, −20° C., and 40° C. as in Table 12. In these slurries, the heptane was pre-saturated with N,N-DMT using Form IV solids at the stated temperature, and a portion of the liquid phase was filtered into a mixture of Form I and Form IV solids.

[2] = Aqueous solubility by solvent addition, visual assessment; conditions: water, calculated from total solvent used
[3] = Hygroscopicity by dynamic vapor sorption (DVS)
[4] = Stable form screen slurries, form by XRPD; conditions: for Relative thermodynamic stability of the polymorph (conclusion from slurries): slurries at RT, 40° C., about 2 weeks
Procedure: Slurrying: Suspensions were prepared by adding enough solids to a given solvent at the stated conditions so that undissolved solids were present. The mixture was then agitated (typically by stirring or oscillation) in a sealed vial at a given temperature for an extended period of time.
Slurry experiments were conducted to determine the relative stability of Forms I, III, and IV. The screening conditions are tabulated at Tables 9-11.
In these experiments, saturated solutions containing excess undissolved solids were stirred for extended durations. […] Slurries were conducted RT, 40° C., 5° C., and −20° C. for approximately 2 weeks.

[5] = Thermogravimetric analysis (TGA), decomposition; conditions: 25 to 350° C. at 10° C./min under nitrogen
Procedure: TGA or TGA/DSC analyses were performed using a Mettler-Toledo TGA/DSC3+ analyzer. Temperature and enthalpy adjustments were performed using indium, tin, zinc, and phenyl salicylate, and then verified with indium. The balance was verified with calcium oxalate. The sample was placed in an aluminum pan. The pan was hermetically sealed, the lid pierced, and the pan was then inserted into the TG furnace. A weighed aluminum pan configured as the sample pan was placed on the reference platform. The furnace was heated under nitrogen. Samples were analyzed from 25° C. to 350° C. at 10° C./min. Thermogravimetric analyses typically experience a period of equilibration at the start of each analysis, indicated by parentheses on the thermograms in the Figures section (V). The starting temperature for relevant weight loss calculations is selected at a point beyond this region (typically above 35° C.) for accuracy.

[6] = Solid state heating experiments, form conversion
[7] = Cycling DSC of amorphous N,N-DMT prepared in situ (glass transition)
Procedure: A cycling DSC experiment was performed to investigate a potential glass transition temperature by preparing amorphous solids in situ, starting with Form IV.
At the start of the experiment, Form IV solids were heated past the melt (to 80° C.) and held for 10 minutes. The melted material was quickly cooled to −80° C., then reheated to 200° C. A glass transition (Tg) is observed as a step in the green curve at −18° ° C. Amorphous materials tend to spontaneously crystallize at temperatures above the Tg.

Structure (SMILES): CN(C)CCc1c[nH]c2ccccc12 [Form I and Form IV, N,N-dimethyltryptamine]
- XRPD Result after competition slurry ([1]; 40° C.): Form IV
- XRPD Result after competition slurry ([1]; RT): Form IV
- XRPD Result after competition slurry ([1]; −20° C.): Form IV

Structure (SMILES): CN(C)CCc1c[nH]c2ccccc12 [Form I, N,N-dimethyltryptamine]
- solubility ([2]; thermodynamic from solid): < 1000 µg/mL
- Hygroscopicity [DVS], water uptake ([3]; at 60% RH): 0.04 wt % water at
- Hygroscopicity [DVS], water uptake ([3]; at 90% RH): 60% RH and 0.18%
- Form after DVS cycle and drying ([3]; post-DVS solids dried at 60° C.): form change; also recorded: recrystallized upon cooling to ambient temperature to lower-melting Form III
- XRPD Result after slurry ([4]; start Form I, EtOAc/cyclohexane (5:95), attempted slurry, RT, 13 d): Form I
- XRPD Result after slurry ([4]; start Form I, IPA/water (10:90), 5° C., 13 d): Form I
- XRPD Result after slurry ([4]; start Form I, THF/water (5:95), attempted slurry, RT, 13 d): Form IV
- XRPD Result after slurry ([4]; start Form I, acetone/water (10:90), 5° C., 13 d): Form IV
- XRPD Result after slurry ([4]; start Form I, cyclohexane, RT, 13 d): Form I
- XRPD Result after slurry ([4]; start Form I, heptane, RT, 13 d): Form I
- XRPD Result after slurry ([4]; start Form I, heptane, −20° C., 17 d): Form I

Structure (SMILES): CN(C)CCc1c[nH]c2ccccc12 [Form III, N,N-dimethyltryptamine]
- Decomposition (steep drop in TGA thermogram) begins above [5]: > 240 °C
- Relative thermodynamic stability of the polymorph (conclusion from slurries) ([4]; 5° C., −20° C.): metastable across all temperatures; also recorded: metastable at all conditions tested
- XRPD Result after slurry ([4]; start Form III, EtOAc/heptane (5:95), −20° C., 15 d): Form I
- XRPD Result after slurry ([4]; start Form III, IPAc/heptane (3:97), RT, 13 d): Form IV
- XRPD Result after slurry ([4]; start Form III, MeOH/water (20:80), 5° C., 15 d, sample oily before analysis): amorphous
- XRPD Result after slurry ([4]; start Form III, heptane, RT, 15 d): Form I
- Form conversion on solid state heating ([6]; held between 35° C. and 40° C.): concurrently melt and recrystallize to Form IV

Structure (SMILES): CN(C)CCc1c[nH]c2ccccc12 [Form IV, N,N-dimethyltryptamine]
- Aqueous solubility [2]: (<1) mg/mL
- Decomposition (steep drop in TGA thermogram) begins above [5]: > 240 °C
- Relative thermodynamic stability of the polymorph (conclusion from slurries) ([4]; 5° C., −20° C.): most thermodynamically stable polymorph; also recorded: remained unchanged upon slurrying in various solvent systems; also recorded: most thermodynamically stable form
- XRPD Result after slurry ([4]; start Form IV, EtOAc/heptane (5:95), −20° C., 13 d): Form IV
- XRPD Result after slurry ([4]; start Form IV, MeOH/water (20:80), 5° C., 13 d): Form IV
- XRPD Result after slurry ([4]; start Form IV, acetone/water (10:90), RT, 13 d): Form IV
- XRPD Result after slurry ([4]; start Form IV, heptane, RT, 13 d): Form IV
- Form change on solid state heating ([6]; heating at 50° C. for 10 minutes): no changes

Structure (SMILES): CN(C)CCc1c[nH]c2ccccc12 [amorphous N,N-DMT, N,N-dimethyltryptamine]
- Glass transition (Tg) ([7]; Form IV melted at 80° C., 10 min, cooled to −80° C., reheated to 200° C.): −18 °C
- Physical stability of amorphous material ([7]; heating/melting experiments, −20° C. to 40° C., above Tg): readily crystallize; also recorded: poor physical stability
